# Reference: ChEMBL document CHEMBL3758169, “4-Aminoindazolyl-dihydrofuro[3,4-d]pyrimidines as non-covalent inhibitors of mutant epidermal growth factor receptor tyrosine kinase” (Bioorg Med Chem Lett, 2016)
# Tests used:
# [1] = target: Serine/threonine-protein kinase 3 (Homo sapiens) (UniProt Q13188); test: Inhibition of MST2 (unknown origin) at 100 nM
# [2] = target: LIM domain kinase 2 (Homo sapiens) (UniProt P53671); test: Inhibition of LIMK2 (unknown origin) at 100 nM
# [3] = target: Tyrosine-protein kinase receptor UFO (Homo sapiens) (UniProt P30530); test: Inhibition of AXL (unknown origin) at 100 nM
# [4] = target: Serine/threonine-protein kinase pim-2 (Homo sapiens) (UniProt Q9P1W9); test: Inhibition of PIM2 (unknown origin) at 100 nM
# [5] = target: Serine/threonine-protein kinase SIK2 (Homo sapiens) (UniProt Q9H0K1); test: Inhibition of SIK2 (unknown origin) at 100 nM
# [6] = target: PAS domain-containing serine/threonine-protein kinase (Homo sapiens) (UniProt Q96RG2); test: Inhibition of PASK (unknown origin) at 100 nM
# [7] = target: Serine/threonine-protein kinase PLK2 (Homo sapiens) (UniProt Q9NYY3); test: Inhibition of PLK2 (unknown origin) at 100 nM
# [8] = target: Death-associated protein kinase 1 (Homo sapiens) (UniProt P53355); test: Inhibition of DAPK1 (unknown origin) at 100 nM
# [9] = target: Tyrosine-protein kinase Fes/Fps (Homo sapiens) (UniProt P07332); test: Inhibition of FES (unknown origin) at 100 nM
# [10] = target: MAP kinase-interacting serine/threonine-protein kinase 2 (Homo sapiens) (UniProt Q9HBH9); test: Inhibition of MKNK2 (unknown origin) at 100 nM
# [11] = target: Phosphatidylinositol 4,5-bisphosphate 3-kinase catalytic subunit delta isoform (Homo sapiens) (UniProt O00329); test: Inhibition of PI3KD (unknown origin) at 100 nM
# [12] = target: Mitogen-activated protein kinase 10 (Homo sapiens) (UniProt P53779); test: Inhibition of JNK3 (unknown origin) at 100 nM
# [13] = target: Mitogen-activated protein kinase 3 (Homo sapiens) (UniProt P27361); test: Inhibition of ERK1 (unknown origin) at 100 nM
# [14] = target: Calcium/calmodulin-dependent protein kinase type II subunit alpha (Homo sapiens) (UniProt Q9UQM7); test: Inhibition of CamKIIalpha (unknown origin) at 100 nM
# [15] = target: Serine/threonine-protein kinase Nek6 (Homo sapiens) (UniProt Q9HC98); test: Inhibition of NEK6 (unknown origin) at 100 nM
# [16] = target: CDK9/cyclin T1 (Homo sapiens) (UniProt O60563+P50750); test: Inhibition of CDK9/cyclinT1 (unknown origin) at 100 nM; type: protein-complex assay
# [17] = target: Activin receptor type-2B (Homo sapiens) (UniProt Q13705); test: Inhibition of ACVR2B (unknown origin) at 100 nM
# [18] = target: Phosphorylase b kinase gamma catalytic chain, liver/testis isoform (Homo sapiens) (UniProt P15735); test: Inhibition of PHKgamma2 (unknown origin) at 100 nM
# [19] = target: Serine/threonine-protein kinase Nek7 (Homo sapiens) (UniProt Q8TDX7); test: Inhibition of NEK7 (unknown origin) at 100 nM
# [20] = target: Calcium/calmodulin-dependent protein kinase type 1D (Homo sapiens) (UniProt Q8IU85); test: Inhibition of CaMKIdelta (unknown origin) at 100 nM
# [21] = target: Aurora kinase A (Homo sapiens) (UniProt O14965); test: Inhibition of Aurora A (unknown origin) at 100 nM
# [22] = target: Dual specificity mitogen-activated protein kinase kinase 6 (Homo sapiens) (UniProt P52564); test: Inhibition of MKK6 (unknown origin) at 100 nM
# [23] = target: Wee1-like protein kinase (Homo sapiens) (UniProt P30291); test: Inhibition of WEE1 (unknown origin) at 100 nM
# [24] = target: Rho-associated protein kinase 2 (Homo sapiens) (UniProt O75116); test: Inhibition of ROCK2 (unknown origin) at 100 nM
# [25] = target: Protein-tyrosine kinase 6 (Homo sapiens) (UniProt Q13882); test: Inhibition of BRK (unknown origin) at 100 nM
# [26] = target: Phosphatidylinositol 4,5-bisphosphate 3-kinase catalytic subunit gamma isoform (Homo sapiens) (UniProt P48736); test: Inhibition of PI3KG (unknown origin) at 100 nM
# [27] = target: Serine/threonine-protein kinase TAO1 (Homo sapiens) (UniProt Q7L7X3); test: Inhibition of TAO1 (unknown origin) at 100 nM
# [28] = target: Tyrosine-protein kinase JAK3 (Homo sapiens) (UniProt P52333); test: Inhibition of JAK3 (unknown origin) at 100 nM
# [29] = target: MAP/microtubule affinity-regulating kinase 4 (Homo sapiens) (UniProt Q96L34); test: Inhibition of MARK4 (unknown origin) at 100 nM
# [30] = target: Proto-oncogene tyrosine-protein kinase ROS (Homo sapiens) (UniProt P08922); test: Inhibition of ROS (unknown origin) at 100 nM
# [31] = target: Serine/threonine-protein kinase 17A (Homo sapiens) (UniProt Q9UEE5); test: Inhibition of DRAK1 (unknown origin) at 100 nM
# [32] = target: Ephrin type-A receptor 8 (Homo sapiens) (UniProt P29322); test: Inhibition of EPHA8 (unknown origin) at 100 nM
# [33] = target: cGMP-dependent protein kinase 2 (Homo sapiens) (UniProt Q13237); test: Inhibition of PKG2 (unknown origin) at 100 nM
# [34] = target: Protein kinase C beta type (Homo sapiens) (UniProt P05771); test: Inhibition of PKCbeta2 (unknown origin) at 100 nM
# [35] = target: Tyrosine-protein kinase CSK (Homo sapiens) (UniProt P41240); test: Inhibition of CSK (unknown origin) at 100 nM
# [36] = tested on: Fibroblast growth factor receptor 3 (Homo sapiens), P22607 [K650E]; test: Inhibition of FGFR3 K650E mutant (unknown origin) at 100 nM
# [37] = target: MAP/microtubule affinity-regulating kinase 3 (Homo sapiens) (UniProt P27448); test: Inhibition of MARK3 (unknown origin) at 100 nM
# [38] = target: Aurora kinase C (Homo sapiens) (UniProt Q9UQB9); test: Inhibition of Aurora C (unknown origin) at 100 nM
# [39] = target: Mitogen-activated protein kinase 14 (Homo sapiens) (UniProt Q16539); test: Inhibition of p38alpha (unknown origin) at 100 nM
# [40] = target: Cyclin-dependent kinase 7/ cyclin H (Homo sapiens) (UniProt P51946+P50613); test: Inhibition of CDK7/cyclinH (unknown origin) at 100 nM; type: protein-complex assay
# [41] = target: Bone morphogenetic protein receptor type-1A (Homo sapiens) (UniProt P36894); test: Inhibition of BMPR1A (unknown origin) at 100 nM
# [42] = target: Serine/threonine-protein kinase WNK2 (Homo sapiens) (UniProt Q9Y3S1); test: Inhibition of WNK2 (unknown origin) at 100 nM
# Sequence of Wee1-like protein kinase (Homo sapiens) (P30291 whole entry, looked up): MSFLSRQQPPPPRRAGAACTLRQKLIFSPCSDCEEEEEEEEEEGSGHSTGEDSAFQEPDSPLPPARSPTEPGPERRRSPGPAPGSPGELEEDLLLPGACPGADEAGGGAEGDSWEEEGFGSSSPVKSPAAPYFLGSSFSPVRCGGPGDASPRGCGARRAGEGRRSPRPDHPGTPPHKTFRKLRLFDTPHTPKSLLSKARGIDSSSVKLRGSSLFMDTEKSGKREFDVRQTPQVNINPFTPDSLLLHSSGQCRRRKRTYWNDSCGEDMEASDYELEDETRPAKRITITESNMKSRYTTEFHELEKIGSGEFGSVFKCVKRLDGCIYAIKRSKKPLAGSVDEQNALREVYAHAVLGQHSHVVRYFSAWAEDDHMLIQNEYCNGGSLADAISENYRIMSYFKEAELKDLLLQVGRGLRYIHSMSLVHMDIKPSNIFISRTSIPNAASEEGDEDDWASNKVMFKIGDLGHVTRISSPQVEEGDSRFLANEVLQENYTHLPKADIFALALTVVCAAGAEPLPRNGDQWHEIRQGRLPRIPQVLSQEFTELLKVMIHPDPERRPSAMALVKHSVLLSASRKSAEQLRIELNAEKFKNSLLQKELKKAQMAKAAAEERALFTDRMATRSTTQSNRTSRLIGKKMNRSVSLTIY
# Sequence of Rho-associated protein kinase 2 (Homo sapiens) (O75116 whole entry, looked up): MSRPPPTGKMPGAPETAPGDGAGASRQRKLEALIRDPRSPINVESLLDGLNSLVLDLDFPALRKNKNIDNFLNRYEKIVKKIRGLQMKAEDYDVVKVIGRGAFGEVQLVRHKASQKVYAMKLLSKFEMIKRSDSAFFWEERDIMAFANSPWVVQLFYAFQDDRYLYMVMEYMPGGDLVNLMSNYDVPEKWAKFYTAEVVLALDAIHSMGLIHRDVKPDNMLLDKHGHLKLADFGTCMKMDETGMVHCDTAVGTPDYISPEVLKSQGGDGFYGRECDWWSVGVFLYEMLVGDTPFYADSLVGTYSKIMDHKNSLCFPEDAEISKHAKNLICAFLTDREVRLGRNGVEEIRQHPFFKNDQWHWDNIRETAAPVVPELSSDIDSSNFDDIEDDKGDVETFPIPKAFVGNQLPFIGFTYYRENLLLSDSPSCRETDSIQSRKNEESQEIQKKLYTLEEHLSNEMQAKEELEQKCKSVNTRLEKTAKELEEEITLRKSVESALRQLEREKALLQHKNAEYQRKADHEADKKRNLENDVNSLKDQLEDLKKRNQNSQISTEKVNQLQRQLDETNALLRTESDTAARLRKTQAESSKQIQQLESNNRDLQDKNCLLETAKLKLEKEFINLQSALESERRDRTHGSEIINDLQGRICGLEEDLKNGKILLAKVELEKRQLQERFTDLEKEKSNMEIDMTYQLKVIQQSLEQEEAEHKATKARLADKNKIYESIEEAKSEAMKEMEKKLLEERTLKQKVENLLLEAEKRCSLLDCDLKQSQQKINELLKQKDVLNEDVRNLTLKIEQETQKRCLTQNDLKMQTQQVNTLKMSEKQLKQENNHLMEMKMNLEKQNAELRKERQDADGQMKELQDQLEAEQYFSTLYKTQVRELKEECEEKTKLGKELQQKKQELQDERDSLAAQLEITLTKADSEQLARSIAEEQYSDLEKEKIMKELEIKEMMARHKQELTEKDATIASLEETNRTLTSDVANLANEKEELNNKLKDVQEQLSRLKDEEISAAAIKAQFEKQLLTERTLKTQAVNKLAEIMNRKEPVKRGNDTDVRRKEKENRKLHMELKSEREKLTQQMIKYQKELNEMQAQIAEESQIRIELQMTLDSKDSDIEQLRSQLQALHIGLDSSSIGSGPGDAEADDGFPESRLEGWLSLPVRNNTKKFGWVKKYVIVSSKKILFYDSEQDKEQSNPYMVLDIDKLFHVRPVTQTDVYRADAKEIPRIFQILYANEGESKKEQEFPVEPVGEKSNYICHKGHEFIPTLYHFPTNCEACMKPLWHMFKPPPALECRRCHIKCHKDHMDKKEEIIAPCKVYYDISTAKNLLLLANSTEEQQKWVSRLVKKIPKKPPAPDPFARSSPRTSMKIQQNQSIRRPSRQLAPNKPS
# Sequence of MAP/microtubule affinity-regulating kinase 3 (Homo sapiens) (P27448 whole entry, looked up): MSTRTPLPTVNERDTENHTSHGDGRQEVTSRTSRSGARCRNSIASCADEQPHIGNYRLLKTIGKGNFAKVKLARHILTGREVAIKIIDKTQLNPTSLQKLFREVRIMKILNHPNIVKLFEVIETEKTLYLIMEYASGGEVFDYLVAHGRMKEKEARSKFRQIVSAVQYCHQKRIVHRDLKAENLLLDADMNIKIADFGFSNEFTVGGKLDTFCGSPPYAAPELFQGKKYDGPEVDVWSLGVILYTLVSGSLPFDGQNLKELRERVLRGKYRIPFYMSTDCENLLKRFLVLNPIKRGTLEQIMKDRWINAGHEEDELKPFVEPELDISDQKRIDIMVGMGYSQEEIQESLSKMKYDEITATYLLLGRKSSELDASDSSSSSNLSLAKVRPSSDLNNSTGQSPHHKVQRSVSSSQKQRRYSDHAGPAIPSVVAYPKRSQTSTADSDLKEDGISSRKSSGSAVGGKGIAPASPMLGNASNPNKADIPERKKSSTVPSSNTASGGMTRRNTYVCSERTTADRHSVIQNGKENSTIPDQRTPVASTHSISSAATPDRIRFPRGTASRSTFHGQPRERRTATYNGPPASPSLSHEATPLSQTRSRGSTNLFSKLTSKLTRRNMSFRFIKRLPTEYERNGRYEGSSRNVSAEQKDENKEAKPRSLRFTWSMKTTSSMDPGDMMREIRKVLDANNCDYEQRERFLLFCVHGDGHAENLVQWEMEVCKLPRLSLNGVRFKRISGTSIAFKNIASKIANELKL
# Sequence of Serine/threonine-protein kinase 17A (Homo sapiens) (Q9UEE5 whole entry): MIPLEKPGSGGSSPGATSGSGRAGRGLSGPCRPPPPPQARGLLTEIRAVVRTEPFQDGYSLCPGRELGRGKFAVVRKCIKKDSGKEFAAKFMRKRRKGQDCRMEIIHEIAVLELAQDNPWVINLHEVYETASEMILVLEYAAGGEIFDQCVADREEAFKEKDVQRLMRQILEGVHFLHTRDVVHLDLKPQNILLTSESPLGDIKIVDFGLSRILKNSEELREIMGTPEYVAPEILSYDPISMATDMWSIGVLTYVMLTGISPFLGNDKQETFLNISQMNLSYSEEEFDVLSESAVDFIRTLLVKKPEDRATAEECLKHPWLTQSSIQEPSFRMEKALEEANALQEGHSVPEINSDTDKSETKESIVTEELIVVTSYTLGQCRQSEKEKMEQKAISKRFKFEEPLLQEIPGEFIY
# Sequence of Serine/threonine-protein kinase pim-2 (Homo sapiens) (Q9P1W9 whole entry, looked up): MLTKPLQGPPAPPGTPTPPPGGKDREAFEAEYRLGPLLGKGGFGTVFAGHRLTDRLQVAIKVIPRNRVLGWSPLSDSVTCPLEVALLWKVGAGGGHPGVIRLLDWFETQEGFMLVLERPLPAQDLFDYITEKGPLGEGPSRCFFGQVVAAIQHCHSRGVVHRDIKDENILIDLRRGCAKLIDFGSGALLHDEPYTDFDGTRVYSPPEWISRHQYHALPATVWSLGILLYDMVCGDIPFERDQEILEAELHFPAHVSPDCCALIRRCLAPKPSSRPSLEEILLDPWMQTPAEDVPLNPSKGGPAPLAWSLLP
# Sequence of Dual specificity mitogen-activated protein kinase kinase 6 (Homo sapiens) (P52564 whole entry): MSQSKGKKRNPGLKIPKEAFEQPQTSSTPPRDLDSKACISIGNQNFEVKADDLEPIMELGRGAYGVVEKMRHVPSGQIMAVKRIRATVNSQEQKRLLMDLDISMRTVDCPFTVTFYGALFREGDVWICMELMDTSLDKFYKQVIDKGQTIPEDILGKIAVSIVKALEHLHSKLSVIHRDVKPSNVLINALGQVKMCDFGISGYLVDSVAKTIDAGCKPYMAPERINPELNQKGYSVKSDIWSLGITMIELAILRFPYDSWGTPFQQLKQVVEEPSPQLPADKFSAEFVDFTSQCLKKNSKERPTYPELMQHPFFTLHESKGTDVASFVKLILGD
# Sequence of MAP/microtubule affinity-regulating kinase 4 (Homo sapiens) (Q96L34 whole entry): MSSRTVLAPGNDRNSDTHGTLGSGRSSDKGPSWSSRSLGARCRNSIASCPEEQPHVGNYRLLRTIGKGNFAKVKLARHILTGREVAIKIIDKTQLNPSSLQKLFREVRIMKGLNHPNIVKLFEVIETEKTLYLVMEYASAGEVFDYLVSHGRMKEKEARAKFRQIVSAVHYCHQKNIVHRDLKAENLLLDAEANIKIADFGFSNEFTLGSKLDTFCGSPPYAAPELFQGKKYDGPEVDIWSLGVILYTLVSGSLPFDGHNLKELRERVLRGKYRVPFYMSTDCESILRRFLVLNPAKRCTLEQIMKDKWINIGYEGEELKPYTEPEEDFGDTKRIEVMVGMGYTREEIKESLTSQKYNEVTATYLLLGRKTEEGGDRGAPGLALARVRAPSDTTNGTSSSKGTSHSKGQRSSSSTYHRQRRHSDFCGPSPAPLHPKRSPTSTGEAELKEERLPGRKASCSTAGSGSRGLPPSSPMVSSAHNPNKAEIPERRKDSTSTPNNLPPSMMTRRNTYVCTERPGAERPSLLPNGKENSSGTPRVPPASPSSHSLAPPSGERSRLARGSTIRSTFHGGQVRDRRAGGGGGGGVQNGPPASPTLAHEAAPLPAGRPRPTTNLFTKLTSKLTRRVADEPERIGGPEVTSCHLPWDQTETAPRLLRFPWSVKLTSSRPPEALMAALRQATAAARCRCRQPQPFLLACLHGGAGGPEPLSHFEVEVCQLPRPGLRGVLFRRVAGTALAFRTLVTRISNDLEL
# Sequence of Mitogen-activated protein kinase 3 (Homo sapiens) (P27361 whole entry): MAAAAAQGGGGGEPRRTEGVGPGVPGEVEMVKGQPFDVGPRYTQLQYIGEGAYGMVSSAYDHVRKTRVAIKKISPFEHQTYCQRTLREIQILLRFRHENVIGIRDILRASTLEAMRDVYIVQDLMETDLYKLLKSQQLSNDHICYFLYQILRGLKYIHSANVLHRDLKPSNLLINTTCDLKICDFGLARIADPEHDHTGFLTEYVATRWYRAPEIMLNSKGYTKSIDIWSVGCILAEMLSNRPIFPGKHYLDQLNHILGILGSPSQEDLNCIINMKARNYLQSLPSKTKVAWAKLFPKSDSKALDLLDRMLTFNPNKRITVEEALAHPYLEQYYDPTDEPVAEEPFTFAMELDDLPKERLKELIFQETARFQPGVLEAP
smiles,measurement,setting,value
CC1(C)OCc2c(Nc3n[nH]c4ccccc34)nc(-c3cn[nH]c3)nc21,inhibition,[1],-2.4%
same,inhibition,[2],-2.1%
same,inhibition,[3],-2.2%
same,inhibition,[4],3.1%
same,inhibition,[5],35.3%
same,inhibition,[6],1.2%
same,inhibition,[7],5.5%
same,inhibition,[8],2.2%
same,inhibition,[9],6%
same,inhibition,[10],-2.3%
same,inhibition,[11],-7.6%
same,inhibition,[12],18.6%
same,inhibition,[13],10.9%
same,inhibition,[14],-0.1%
same,inhibition,[15],9.9%
same,inhibition,[16],-6.1%
same,inhibition,[17],96.8%
same,inhibition,[18],-2.9%
same,inhibition,[19],8.4%
same,inhibition,[20],-5.3%
same,inhibition,[21],-5.4%
same,inhibition,[22],-0.9%
same,inhibition,[23],36.1%
same,inhibition,[24],-10%
same,inhibition,[25],90.6%
same,inhibition,[26],15.1%
same,inhibition,[27],0.7%
same,inhibition,[28],2.7%
same,inhibition,[29],2.5%
same,inhibition,[30],11.4%
same,inhibition,[31],1.1%
same,inhibition,[32],24.9%
same,inhibition,[33],-8.9%
same,inhibition,[34],11.4%
same,inhibition,[35],3.7%
same,inhibition,[36],38.8%
same,inhibition,[37],8.4%
same,inhibition,[38],1.2%
same,inhibition,[39],44.5%
same,inhibition,[40],14.3%
same,inhibition,[41],16.8%
same,inhibition,[42],3.4%
